Results: US20050101518A1, “Methods of treating conditions associated with an EDG-2 receptor” (priority 2002, published 2005)
pIC50: −log10 of the molar value.

Key:
Edg 1 receptor = biological target: T1, Edg 1 receptor (Homo sapiens, UniProt P21453); assay: Intracellular calcium measurement (FLIPR), S1P-stimulated calcium increases in HTC cells expressing Edg 1; format: cell-based; settings: FIG. 1 and 2
T1 construct: expressed in transfected cells; host or cells: HTC (rat hepatoma) cells

Edg-2 receptor = biological target: T2, Edg-2 receptor (Homo sapiens, UniProt Q92633); assay: Intracellular calcium measurement (FLIPR), LPA-stimulated calcium increases in rat hepatoma (HTC) cells stably expressing Edg-2; format: cell-based; settings: for inhibition of the Edg 2 receptor: FIG. 1 and 2; for pIC50: calcium mobilization, HTC cells expressing Edg 2; for Fold Selective: selectivity for Edg-2 relative to other Edg receptors
T2 construct: expressed in transfected cells
Excerpt: (§1) LPA receptors such as Edg-2, couple to calcium effector pathways, and result in increases in intracellular calcium following receptor activation (An, 1998, J. Cell. Biochem. Supp., 30-31: 147-157). This biological response lends itself to a very efficient, high-throughput screen using a Fluorescence Imaging Plate Reader (FLIPR; Molecular Devices, Sunnyvale, Calif.). The FLIPR system is a real-time, cell-based assay system with continuous fluorescence detection using a cooled CCD camera. The FLIPR system was used to developing an Edg-2 receptor screen. Rat hepatoma cells stably expressing Edg-2 receptor were plated on 384-well plates and loaded with a calcium dye loading kit (Molecular Devices, Sunnyvale, Calif.) for 1 hour at room temperature. Cells were then placed on the FLIPR^384 (Molecular Devices, Sunnyvale, Calif.) and excited by an argon laser at 488 nm. The data for the entire 384-well plate was updated every second. An integrated robotic pipettor allowed for simultaneous compound addition into each individual well in the plate.

Edg 3 receptor = biological target: T3, Edg 3 receptor (Homo sapiens, UniProt Q99500); assay: Intracellular calcium measurement (FLIPR), S1P-stimulated calcium increases in HTC cells expressing Edg 3; format: cell-based; settings: FIG. 1 and 2
T3 construct: expressed in transfected cells; host or cells: HTC (rat hepatoma) cells

Edg-4 receptor = biological target: T4, Edg-4 receptor (Homo sapiens, UniProt Q9HBW0); assay: Intracellular calcium measurement (FLIPR), LPA-stimulated calcium increases in HTC cells expressing Edg-4; format: cell-based; settings: FIG. 1 and 2
T4 construct: expressed in transfected cells; host or cells: HTC (rat hepatoma) cells

Edg 5 receptor = biological target: T5, Edg 5 receptor (Homo sapiens, UniProt O95136); assay: Intracellular calcium measurement (FLIPR), S1P-stimulated calcium increases in HTC cells expressing Edg 5; format: cell-based; settings: FIG. 1 and 2
T5 construct: expressed in transfected cells; host or cells: HTC (rat hepatoma) cells

Edg 6 receptor = biological target: T6, Edg 6 receptor (Homo sapiens, UniProt O95977); assay: Intracellular calcium measurement (FLIPR), S1P-stimulated calcium increases in HTC cells expressing Edg 6; format: cell-based; settings: for inhibition of S1P-stimulated calcium increases, Edg 6: FIG. 1 and 2; for pIC50: calcium mobilization
T6 construct: expressed in transfected cells; host or cells: HTC (rat hepatoma) cells
T6 sequence (O95977 1-384): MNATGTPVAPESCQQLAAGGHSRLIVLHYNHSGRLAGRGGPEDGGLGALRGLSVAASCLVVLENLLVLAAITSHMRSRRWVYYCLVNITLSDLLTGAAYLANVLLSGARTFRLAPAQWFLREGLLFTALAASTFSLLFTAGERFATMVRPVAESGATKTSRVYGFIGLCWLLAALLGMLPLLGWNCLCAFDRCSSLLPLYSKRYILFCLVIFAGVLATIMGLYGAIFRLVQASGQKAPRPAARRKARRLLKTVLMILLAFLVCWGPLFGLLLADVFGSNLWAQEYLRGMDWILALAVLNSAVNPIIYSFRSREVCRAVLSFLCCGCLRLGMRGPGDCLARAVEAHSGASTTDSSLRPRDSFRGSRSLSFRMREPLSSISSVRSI

Edg-7 receptor = biological target: T7, Edg-7 receptor (Homo sapiens, UniProt Q9UBY5); assay: Intracellular calcium measurement (FLIPR), LPA-stimulated calcium increases in HTC cells expressing Edg-7; format: cell-based; settings: FIG. 1 and 2
T7 construct: expressed in transfected cells; host or cells: HTC (rat hepatoma) cells

Edg 8 receptor = biological target: T8, Edg 8 receptor (Homo sapiens, UniProt Q9H228); assay: Intracellular calcium measurement (FLIPR), S1P-stimulated calcium increases in HTC cells expressing Edg 8; format: cell-based; settings: FIG. 1 and 2
T8 construct: expressed in transfected cells; host or cells: HTC (rat hepatoma) cells

[1] = test system: A431 human epitheloid carcinoma cells; assay: LPA-stimulated calcium mobilization in A431 human epitheloid carcinoma cells; format: cell-based; settings: for inhibition of LPA-stimulated calcium mobilization: 10 μM compound, FIG. 6
Excerpt: [The procedure below names another cell line; the source lists this cell line under the same test.] as §1

[2] = test system: Adrenergic α1, non-selective; settings: significance criteria ≧50% of max stimulation or inhibition; Table 2
Method: (§2) A radioligand binding assay was performed using adrenergic α1 according to the method of Greengrass and Bremner 1979, Eur. J. Pharmacol. 55:323-326. A radioligand binding assay was performed using adrenergic α2 according to the method of Boyajian and Leslie, 1987, J. Pharmacol. Exp. Ther. 241:1092-1098. A redioligand binding assay was performed using adrenergic β according to the method of Feve et al., 1994, Proc. Natl. Acad. Sci. USA 91:5677-5681. A radioligand binding assay was performed using angiotensin AT2 according to the method of Whitebread el al., 1991, Biochem. Biophys. Res. Comm. 181:1365-1371. A radioligand binding assay was performed using calcium channel Type L, dihydropyridine according to the method of Ehlert et al., 1982, Life Sci. 30:2191-2202. A radioligand binding assay was performed using dopamine D2L according to the method of Bunzo et al., 1988, Nature 336:783-787. A radioligand binding assay was performed using endothelin ETA according to the method of Mihara et al., 1994, J. Phrmacol. Exp Ther. 268:1122-1127. A radioligand binding assay was performed using histamine H1 Central according to the method of Hill et al., 1978, J. Neurochem. 31:997-1004. A radioligand binding assay was performed using Muscarinic non-selective, Central according to the method of Luthin and Wolfe, 1984, J. Pharmacol. Exp. Ther. 228:648-655. A radioligand binding assay was performed using serotonin 5-HT1, non-selective according to the method of Middlemiss, 1984, Eur. J. Pharmacol. 101:289-293).

Adrenergic α2 = settings: significance criteria ≧50% of max stimulation or inhibition; Table 2
Method: as §2

Adrenergic β = settings: significance criteria ≧50% of max stimulation or inhibition; Table 2
Method: as §2

Angiotensin AT2 = Angiotensin AT2 (Homo sapiens, UniProt P50052); settings: significance criteria ≧50% of max stimulation or inhibition; Table 2
Method: as §2

[3] = test system: Calcium Channel Type L, Dihydropyridine; settings: significance criteria ≧50% of max stimulation or inhibition; Table 2
Method: as §2

Dopamine D2L = Dopamine D2L (Homo sapiens, UniProt P14416); settings: significance criteria ≧50% of max stimulation or inhibition; Table 2
Method: as §2

Endothelin ETA = Endothelin ETA (Homo sapiens, UniProt P25101); settings: significance criteria ≧50% of max stimulation or inhibition; Table 2
Method: as §2

Histamine H1, Central = Histamine H1, Central (Cavia porcellus, UniProt P31389); settings: significance criteria ≧50% of max stimulation or inhibition; Table 2
Method: as §2

[4] = test system: Muscarinic non-selective, Central; settings: significance criteria ≧50% of max stimulation or inhibition; Table 2
Method: as §2

[5] = test system: Serotonin 5-HT1, non-selective; settings: significance criteria ≧50% of max stimulation or inhibition; Table 2
Method: as §2

[6] = test system: various targets tested, including other GPCRs, ion channels, and enzymes; assay: Pharmacology profiling (selectivity assays) at various non-Edg targets; format: binding
Excerpt: Res. Comm. 181:1365-1371. […] Exp Ther. 268:1122-1127. […] 31:997-1004.

[7] = test system: immortalized ovarian surface epithelial cells; assay: LPA-stimulated calcium mobilization in immortalized ovarian surface epithelial cells; format: cell-based; settings: 10 μM compound, FIG. 3
Excerpt: [The procedure below names another cell line; the source lists this cell line under the same test.] as §1

[8] = test system: forskolin-stimulated cAMP production; assay: cAMP assay: LPA inhibition of forskolin-stimulated cAMP production; format: cell-based; settings: 10 μM compound; FIG. 4
Method: Cells were plated in a 96 well format. Treatments were performed directly without any serum starvation. The cells were treated with forskolin to induce cAMP production, followed by LPA or S1P doses in the range from 0.1-10 μM in serum free medium. Following a 30-minute incubation period, the cells were lysed and the level of cAMP was determined.
The cAMP assay was performed using the Tropix cAMP-Screen (Applied BioSystems, Foster City, Calif.). The screen is a competitive immunoassay that utilizes a 96 well assay plate precoated with an anti-cAMP antibody. Cell lysates were added to the precoated plate, along with a cAMP-AP conjugate and a secondary anti-cAMP antibody.
Detection was performed using a substrate solution and chemiluminescent readout. The level of chemiluminescence was inversely proportional to the level of cAMP and was calculated from a standard curve.

T2 sequence (Q92633 whole entry): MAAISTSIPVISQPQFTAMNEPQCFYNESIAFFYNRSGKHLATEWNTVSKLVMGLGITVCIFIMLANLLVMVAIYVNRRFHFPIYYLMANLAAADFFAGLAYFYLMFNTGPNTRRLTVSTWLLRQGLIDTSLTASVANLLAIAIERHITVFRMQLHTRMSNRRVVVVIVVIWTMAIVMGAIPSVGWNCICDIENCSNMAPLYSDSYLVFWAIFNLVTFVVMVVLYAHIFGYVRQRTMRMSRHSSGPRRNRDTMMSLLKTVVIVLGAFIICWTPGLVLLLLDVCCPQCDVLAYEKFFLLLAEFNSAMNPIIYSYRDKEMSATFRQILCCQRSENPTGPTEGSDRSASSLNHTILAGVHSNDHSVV
T4 sequence (Q9HBW0 whole entry): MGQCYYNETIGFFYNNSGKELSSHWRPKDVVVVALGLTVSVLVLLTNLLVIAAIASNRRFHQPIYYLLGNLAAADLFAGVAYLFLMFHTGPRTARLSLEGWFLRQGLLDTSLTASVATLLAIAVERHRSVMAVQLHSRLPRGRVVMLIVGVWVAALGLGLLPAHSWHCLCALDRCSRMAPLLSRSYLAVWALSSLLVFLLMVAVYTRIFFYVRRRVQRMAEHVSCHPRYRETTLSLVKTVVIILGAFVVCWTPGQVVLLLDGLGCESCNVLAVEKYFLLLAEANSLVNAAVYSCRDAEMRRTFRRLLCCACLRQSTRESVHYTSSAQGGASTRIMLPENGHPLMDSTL
T1 sequence (P21453 whole entry): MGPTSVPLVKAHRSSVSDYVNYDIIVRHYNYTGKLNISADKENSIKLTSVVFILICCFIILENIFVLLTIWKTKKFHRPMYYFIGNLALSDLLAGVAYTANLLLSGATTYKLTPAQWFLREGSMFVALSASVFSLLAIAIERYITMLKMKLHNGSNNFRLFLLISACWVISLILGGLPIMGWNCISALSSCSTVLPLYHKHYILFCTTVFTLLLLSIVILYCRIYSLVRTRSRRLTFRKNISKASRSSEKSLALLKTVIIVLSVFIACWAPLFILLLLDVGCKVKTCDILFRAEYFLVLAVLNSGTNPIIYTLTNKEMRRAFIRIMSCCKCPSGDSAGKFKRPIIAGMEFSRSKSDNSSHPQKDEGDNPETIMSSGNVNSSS
T8 sequence (Q9H228 whole entry): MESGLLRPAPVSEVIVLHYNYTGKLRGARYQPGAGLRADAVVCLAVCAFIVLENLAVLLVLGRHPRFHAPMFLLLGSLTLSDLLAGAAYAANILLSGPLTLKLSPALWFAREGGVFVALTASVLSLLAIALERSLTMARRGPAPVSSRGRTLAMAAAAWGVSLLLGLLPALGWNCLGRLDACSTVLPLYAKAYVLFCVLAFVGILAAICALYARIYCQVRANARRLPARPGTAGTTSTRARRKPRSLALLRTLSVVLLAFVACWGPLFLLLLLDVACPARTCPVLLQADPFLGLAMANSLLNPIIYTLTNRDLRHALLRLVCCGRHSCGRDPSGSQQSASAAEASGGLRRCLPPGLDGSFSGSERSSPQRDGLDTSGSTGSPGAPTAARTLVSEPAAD
T3 sequence (Q99500 whole entry): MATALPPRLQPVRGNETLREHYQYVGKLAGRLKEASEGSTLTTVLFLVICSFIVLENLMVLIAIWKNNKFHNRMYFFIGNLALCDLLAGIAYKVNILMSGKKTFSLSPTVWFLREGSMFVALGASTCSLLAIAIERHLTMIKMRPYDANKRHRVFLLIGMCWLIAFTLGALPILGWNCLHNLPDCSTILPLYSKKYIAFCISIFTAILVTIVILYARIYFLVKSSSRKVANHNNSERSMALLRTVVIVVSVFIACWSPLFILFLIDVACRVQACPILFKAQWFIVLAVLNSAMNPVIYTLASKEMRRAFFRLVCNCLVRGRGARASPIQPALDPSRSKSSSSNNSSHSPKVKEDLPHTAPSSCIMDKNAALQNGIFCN
T7 sequence (Q9UBY5 whole entry): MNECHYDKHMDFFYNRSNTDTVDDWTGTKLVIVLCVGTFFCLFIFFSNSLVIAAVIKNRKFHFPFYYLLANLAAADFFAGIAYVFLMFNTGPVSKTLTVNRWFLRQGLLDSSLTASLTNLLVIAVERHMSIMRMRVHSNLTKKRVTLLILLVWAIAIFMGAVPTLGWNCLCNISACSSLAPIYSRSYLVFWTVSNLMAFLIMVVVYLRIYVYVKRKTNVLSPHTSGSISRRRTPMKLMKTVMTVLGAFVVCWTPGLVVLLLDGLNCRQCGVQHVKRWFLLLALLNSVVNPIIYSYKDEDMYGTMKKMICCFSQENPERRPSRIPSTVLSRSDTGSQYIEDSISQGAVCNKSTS
T5 sequence (O95136 whole entry): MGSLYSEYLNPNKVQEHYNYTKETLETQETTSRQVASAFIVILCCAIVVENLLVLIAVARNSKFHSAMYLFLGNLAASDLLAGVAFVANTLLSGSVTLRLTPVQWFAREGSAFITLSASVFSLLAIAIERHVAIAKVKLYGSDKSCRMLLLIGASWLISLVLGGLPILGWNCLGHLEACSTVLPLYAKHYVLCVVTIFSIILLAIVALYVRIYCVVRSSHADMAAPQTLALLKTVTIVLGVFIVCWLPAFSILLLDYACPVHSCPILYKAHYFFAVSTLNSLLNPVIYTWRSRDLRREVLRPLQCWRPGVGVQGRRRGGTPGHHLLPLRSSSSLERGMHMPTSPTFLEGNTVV
Sequence of Angiotensin AT2 (P50052 whole entry): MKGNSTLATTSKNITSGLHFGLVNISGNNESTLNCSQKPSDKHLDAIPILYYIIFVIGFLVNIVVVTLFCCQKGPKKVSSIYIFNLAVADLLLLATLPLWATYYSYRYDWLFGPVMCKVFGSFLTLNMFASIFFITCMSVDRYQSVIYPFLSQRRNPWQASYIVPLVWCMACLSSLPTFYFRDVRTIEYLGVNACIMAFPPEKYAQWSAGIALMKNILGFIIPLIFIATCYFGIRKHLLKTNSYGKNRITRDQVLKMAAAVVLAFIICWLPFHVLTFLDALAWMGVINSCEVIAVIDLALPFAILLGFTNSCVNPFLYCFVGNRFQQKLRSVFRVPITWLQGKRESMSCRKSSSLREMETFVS
Sequence of Dopamine D2L (P14416 whole entry): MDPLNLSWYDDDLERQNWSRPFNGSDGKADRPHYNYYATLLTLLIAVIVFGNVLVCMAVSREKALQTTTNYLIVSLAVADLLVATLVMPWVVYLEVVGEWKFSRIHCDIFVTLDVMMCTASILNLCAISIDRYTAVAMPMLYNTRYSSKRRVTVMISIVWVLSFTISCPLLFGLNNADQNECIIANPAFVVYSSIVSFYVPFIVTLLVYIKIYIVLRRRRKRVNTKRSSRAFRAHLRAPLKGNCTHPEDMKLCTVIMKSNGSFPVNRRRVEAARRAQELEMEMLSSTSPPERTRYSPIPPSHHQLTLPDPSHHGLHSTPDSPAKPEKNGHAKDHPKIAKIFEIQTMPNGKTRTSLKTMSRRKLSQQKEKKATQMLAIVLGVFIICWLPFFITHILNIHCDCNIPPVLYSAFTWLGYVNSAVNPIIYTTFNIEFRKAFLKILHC
Sequence of Endothelin ETA (P25101 21-427): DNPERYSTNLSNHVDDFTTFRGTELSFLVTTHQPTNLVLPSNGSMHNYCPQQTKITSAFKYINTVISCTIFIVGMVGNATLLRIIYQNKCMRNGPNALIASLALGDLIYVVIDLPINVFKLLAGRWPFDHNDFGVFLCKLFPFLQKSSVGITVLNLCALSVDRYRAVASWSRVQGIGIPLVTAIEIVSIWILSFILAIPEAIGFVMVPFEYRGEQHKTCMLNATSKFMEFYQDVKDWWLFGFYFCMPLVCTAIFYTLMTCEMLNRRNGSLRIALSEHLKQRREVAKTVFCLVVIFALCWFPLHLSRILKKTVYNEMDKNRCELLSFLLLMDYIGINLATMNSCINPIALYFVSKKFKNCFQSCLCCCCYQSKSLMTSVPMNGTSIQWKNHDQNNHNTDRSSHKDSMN
Sequence of Histamine H1, Central (P31389 whole entry): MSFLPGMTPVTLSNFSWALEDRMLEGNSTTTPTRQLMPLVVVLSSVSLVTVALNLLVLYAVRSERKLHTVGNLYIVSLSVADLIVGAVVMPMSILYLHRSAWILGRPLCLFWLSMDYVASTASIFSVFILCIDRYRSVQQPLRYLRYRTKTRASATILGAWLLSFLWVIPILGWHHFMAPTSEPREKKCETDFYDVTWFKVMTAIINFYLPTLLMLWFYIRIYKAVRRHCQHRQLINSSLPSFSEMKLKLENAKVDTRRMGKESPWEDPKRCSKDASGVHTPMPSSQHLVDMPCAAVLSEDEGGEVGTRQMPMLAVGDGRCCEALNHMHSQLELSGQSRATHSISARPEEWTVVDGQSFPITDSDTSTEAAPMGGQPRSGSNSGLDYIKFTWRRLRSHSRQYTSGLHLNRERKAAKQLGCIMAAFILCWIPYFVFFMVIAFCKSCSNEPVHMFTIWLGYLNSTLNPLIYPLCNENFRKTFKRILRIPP

Row | SMILES | inhibition of S1P-stimulated calcium increases, Edg 1 (Edg 1 receptor) | inhibition of the Edg 2 receptor (Edg-2 receptor) | pIC50 (Edg-2 receptor) | Fold Selective (Edg-2 receptor) | inhibition of S1P-stimulated calcium increases, Edg 3 (Edg 3 receptor) | inhibition of LPA-stimulated calcium increases, Edg 4 (Edg-4 receptor) | inhibition of S1P-stimulated calcium increases, Edg 5 (Edg 5 receptor) | inhibition of S1P-stimulated calcium increases, Edg 6 (Edg 6 receptor) | pIC50 (Edg 6 receptor) | inhibition of LPA-stimulated calcium increases, Edg 7 (Edg-7 receptor) | inhibition of S1P-stimulated calcium increases, Edg 8 (Edg 8 receptor) | inhibition of LPA-stimulated calcium mobilization [1] | activity at various targets tested, including other GPCRs, ion channels, and enzymes [6] | inhibition of LPA-stimulated calcium mobilization [7] | reversal of LPA inhibition of forskolin-stimulated cAMP production [8] | also measured
1 | CCOc1ccccc1N1C(=O)CC(N(O)c2ccccc2)C1=O (stereo not shown) [Compound 101, 1-(2-Ethoxyphenyl)-3-(hydroxyphenylamine)-pyrrolidine-2,5-dione] | did not inhibit | specifically inhibit | 5.85 | >14.3 | did not inhibit | did not inhibit | did not inhibit | did not inhibit | < 4.70 | did not inhibit | did not inhibit | inhibition | did not demonstrate any significant activity | – | – | inhibition of LPA-stimulated calcium mobilization, dose response to LPA ([1]; varying concentrations of compound (0-10 μM), FIG. 5): inhibition; activity in radioligand binding assay, Adrenergic Alpha 1, non-selective [2]: no significant activity; activity in radioligand binding assay, Adrenergic Alpha 2, non-selective (Adrenergic α2): no significant activity; activity in radioligand binding assay, Adrenergic Beta, non-selective (Adrenergic β): no significant activity; activity in radioligand binding assay, Angiotensin AT2 (Angiotensin AT2): no significant activity; activity in radioligand binding assay, Calcium Channels Type L, DHP [3]: no significant activity; activity in radioligand binding assay, Dopamine D2L (Dopamine D2L): no significant activity; activity in radioligand binding assay, Endothelin ETA (Endothelin ETA): no significant activity; activity in radioligand binding assay, H1 central (Histamine H1, Central): no significant activity; activity in radioligand binding assay, Muscarinic, non-selective, central [4]: no significant activity; activity in radioligand binding assay, Serotonin 5HT1 non-selective [5]: no significant activity
2 | CCn1nc(C)c(-c2ccccc2O)c1-c1ccccc1 [Compound 103, 2(1-Ethyl-3-methyl-5-phenyl-1H-pyrazol-4-yl)phenol] | did not inhibit | specifically inhibited | 6.19 | >31.3 | did not inhibit | did not inhibit | did not inhibit | did not inhibit | < 4.70 | did not inhibit | did not inhibit | inhibition | did not demonstrate any significant activity | almost completely inhibited | reverses the inhibitory effects of LPA | –
3 | CCOc1ccccc1N1C(=O)CC(N(O)c2ccc(F)cc2)C1=O (stereo not shown) [Compound 111, 1-(2-Ethoxyphenyl)-3-[(4-fluorophenyl)hydroxylamino]pyrrolidine-2,5-dione] | – | – | – | – | – | – | – | – | – | – | – | – | – | – | – | melting point: 123 to 124 °C
4 | O=C(CC(=O)C(F)(F)F)Nc1cc(-c2ccccc2)n[nH]1 [Compound 201, 4,4,4-trifluoro-3-oxo-N-(5-phenyl-2H-pyrazol-3-yl)butyramide, reference compound] | – | – | – | – | – | – | – | – | – | – | – | not | – | little to no effect | little to no effect | –
